Results on 8 test systems are retold here after the supplement of paper PMC6045584.

Compound in one assay: CC[C@@H](C(=O)[C@@H](C)[C@@H](O)[C@H](C)[C@@H]1O[C@@H]([C@@H](CC)C(=O)O)CC[C@@H]1C)[C@H]1O[C@]2(C=C[C@@H](O)[C@]3(CC[C@@](C)([C@H]4CC[C@](O)(CC)[C@H](C)O4)O3)O2)[C@H](C)C[C@@H]1C [SALINOMYCIN]
Description: surviving fraction relative to DMSO-only wells; higher = less growth inhibition. The conditions noted are these: exposure time: 5 days. Summed up:
(§1)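 Tumour cell lines were grown to log phase and seeded at 250–500 cells per well in 384-well plates. They were exposed continuously to inhibitors at 0.5, 1, 5, 10, 50, 100, 500 and 1000 nM for five days, beginning 24 hours after seeding. Surviving fraction is CellTiter-Glo luminescence normalised to the median of DMSO-only wells.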

Compound in another assay: O=c1[nH]cc(F)c(=O)[nH]1 [FLUOROURACIL]
The description is as above. The note with it: exposure time: 5 days. Summed up: as §1

± gives the standard deviation of the averaged measurements.

CADOES1 SOFT TISSUE: the surviving fraction worked out at 0.978 ± 0.096 with SALINOMYCIN (0.5 nM); 0.959 ± 0.036 with SALINOMYCIN (1 nM); 0.838 ± 0.14 in the assay with SALINOMYCIN (5 nM); 0.918 ± 0.15 with SALINOMYCIN (10 nM); 0.856 ± 0.041 in the assay with SALINOMYCIN (50 nM); 0.454 ± 0.1 in the assay with SALINOMYCIN (100 nM). Further, the surviving fraction with SALINOMYCIN (500 nM) worked out at 0.147 ± 0.0061; with SALINOMYCIN (1000 nM), 0.105 ± 0.004; in the assay with FLUOROURACIL (0.5 nM), 0.969 ± 0.035; with FLUOROURACIL (1 nM), 0.925 ± 0.057; with FLUOROURACIL (5 nM) it was 0.907 ± 0.13; with FLUOROURACIL (10 nM), 0.963 ± 0.097. Further, the surviving fraction came to 0.968 ± 0.03 with FLUOROURACIL (50 nM), 0.912 ± 0.098 with FLUOROURACIL (100 nM), 0.905 ± 0.055 with FLUOROURACIL (500 nM) and 0.775 ± 0.081 with FLUOROURACIL (1000 nM).

For the test system CAL51 BREAST, the surviving fraction turned out to be 0.937 ± 0.041 with SALINOMYCIN (0.5 nM); 0.86 ± 0.12 with SALINOMYCIN (1 nM); 0.984 ± 0.018 with SALINOMYCIN (5 nM); 0.969 ± 0.021 with SALINOMYCIN (10 nM); 1 ± 0.017 with SALINOMYCIN (50 nM); 0.972 ± 0.034 with SALINOMYCIN (100 nM). Further, the surviving fraction with SALINOMYCIN (500 nM) was 0.615 ± 0.022; with SALINOMYCIN (1000 nM), 0.359 ± 0.018; in the assay with FLUOROURACIL (0.5 nM), 0.931 ± 0.016; with FLUOROURACIL (1 nM), 0.918 ± 0.09; with FLUOROURACIL (5 nM), 0.944 ± 0.048; in the assay with FLUOROURACIL (10 nM), 0.971 ± 0.016. For the same test system, the surviving fraction in the assay with FLUOROURACIL (50 nM) is 1 ± 0.057; in the assay with FLUOROURACIL (100 nM), 0.904 ± 0.017; with FLUOROURACIL (500 nM), 0.915 ± 0.015; with FLUOROURACIL (1000 nM), 0.763 ± 0.018.

In the case of CAL72 BONE, the surviving fraction was found to be 1.05 ± 0.037 with SALINOMYCIN (0.5 nM); 1.02 ± 0.044 with SALINOMYCIN (1 nM); 1.04 ± 0.018 with SALINOMYCIN (5 nM); 1.06 ± 0.027 with SALINOMYCIN (10 nM); 1.11 ± 0.021 with SALINOMYCIN (50 nM); 1.1 ± 0.049 with SALINOMYCIN (100 nM). The surviving fraction with SALINOMYCIN (500 nM) came to 0.647 ± 0.087; with SALINOMYCIN (1000 nM) it was 0.564 ± 0.031; with FLUOROURACIL (0.5 nM), 1.07 ± 0.014; with FLUOROURACIL (1 nM) it was 1.056 ± 0.0093; in the assay with FLUOROURACIL (5 nM) it was 1.03 ± 0.051; in the assay with FLUOROURACIL (10 nM), 1.05 ± 0.039. Besides, the surviving fraction was found to be 1.02 ± 0.037 with FLUOROURACIL (50 nM), 0.944 ± 0.093 with FLUOROURACIL (100 nM), 0.955 ± 0.16 in the assay with FLUOROURACIL (500 nM) and 0.751 ± 0.16 with FLUOROURACIL (1000 nM).

Regarding CAL120 BREAST, the surviving fraction with SALINOMYCIN (0.5 nM) was determined as 0.8885 ± 0.0083; with SALINOMYCIN (1 nM), 0.893 ± 0.0056; in the assay with SALINOMYCIN (5 nM), 0.877 ± 0.021; in the assay with SALINOMYCIN (10 nM) it was 0.8868 ± 0.0073; with SALINOMYCIN (50 nM), 0.661 ± 0.01; with SALINOMYCIN (100 nM), 0.334 ± 0.015. Besides, the surviving fraction with SALINOMYCIN (500 nM) worked out at 0.088 ± 0.0061; in the assay with SALINOMYCIN (1000 nM), 0.0535 ± 0.0022; with FLUOROURACIL (0.5 nM) it was 0.986 ± 0.039; with FLUOROURACIL (1 nM) it was 0.991 ± 0.041; in the assay with FLUOROURACIL (5 nM), 0.989 ± 0.034; with FLUOROURACIL (10 nM), 0.979 ± 0.069. Also, the surviving fraction in the assay with FLUOROURACIL (50 nM) amounted to 0.967 ± 0.015; with FLUOROURACIL (100 nM), 0.938 ± 0.032; in the assay with FLUOROURACIL (500 nM), 0.983 ± 0.043; with FLUOROURACIL (1000 nM) it was 0.803 ± 0.024.

On to CASKI CERVIX, for which the surviving fraction came out at 0.93 ± 0.055 with SALINOMYCIN (0.5 nM); 0.921 ± 0.039 with SALINOMYCIN (1 nM); 0.868 ± 0.037 with SALINOMYCIN (5 nM); 0.911 ± 0.038 with SALINOMYCIN (10 nM); 0.703 ± 0.0027 with SALINOMYCIN (50 nM); 0.583 ± 0.028 with SALINOMYCIN (100 nM). For the same test system, the surviving fraction was 0.3273 ± 0.0031 in the assay with SALINOMYCIN (500 nM); 0.289 ± 0.024 with SALINOMYCIN (1000 nM); 0.957 ± 0.037 with FLUOROURACIL (0.5 nM); 0.928 ± 0.045 with FLUOROURACIL (1 nM); 0.935 ± 0.04 in the assay with FLUOROURACIL (5 nM); 0.941 ± 0.068 with FLUOROURACIL (10 nM). Besides, the surviving fraction is 0.92 ± 0.046 with FLUOROURACIL (50 nM), 0.916 ± 0.066 in the assay with FLUOROURACIL (100 nM), 0.801 ± 0.045 with FLUOROURACIL (500 nM) and 0.555 ± 0.033 in the assay with FLUOROURACIL (1000 nM).

For the test system CHLA90 AUTONOMIC GANGLIA, the surviving fraction with SALINOMYCIN (0.5 nM) was 0.992 ± 0.017; with SALINOMYCIN (1 nM), 0.9167 ± 0.0091; with SALINOMYCIN (5 nM), 0.926 ± 0.014; in the assay with SALINOMYCIN (10 nM) it was 0.396 ± 0.01; with SALINOMYCIN (50 nM), 0.949 ± 0.069; with SALINOMYCIN (100 nM) it was 0.877 ± 0.048. In addition, the surviving fraction with SALINOMYCIN (500 nM) came to 0.169 ± 0.028; with SALINOMYCIN (1000 nM), 0.0267 ± 0.00058; with FLUOROURACIL (0.5 nM), 0.951 ± 0.021; with FLUOROURACIL (1 nM), 0.946 ± 0.043; with FLUOROURACIL (5 nM) it was 0.939 ± 0.059; in the assay with FLUOROURACIL (10 nM), 1 ± 0.13. Moreover, the surviving fraction is 1.07 ± 0.054 with FLUOROURACIL (50 nM), 1.04 ± 0.084 in the assay with FLUOROURACIL (100 nM), 0.91 ± 0.12 with FLUOROURACIL (500 nM) and 0.886 ± 0.09 in the assay with FLUOROURACIL (1000 nM).

On to CME SYNOVIAL, for which the surviving fraction with SALINOMYCIN (0.5 nM) was 1.12 ± 0.14; with SALINOMYCIN (1 nM) it was 0.826 ± 0.031; with SALINOMYCIN (5 nM), 1.06 ± 0.15; with SALINOMYCIN (10 nM), 0.177 ± 0.069; with SALINOMYCIN (50 nM), 1.14 ± 0.07; with SALINOMYCIN (100 nM) it was 0.947 ± 0.094. Also, the surviving fraction was 0.351 ± 0.018 with SALINOMYCIN (500 nM); 0.141 ± 0.0067 with SALINOMYCIN (1000 nM); 1.35 ± 0.12 with FLUOROURACIL (0.5 nM); 1.26 ± 0.024 in the assay with FLUOROURACIL (1 nM); 1.27 ± 0.032 with FLUOROURACIL (5 nM); 1.21 ± 0.036 with FLUOROURACIL (10 nM). Besides, the surviving fraction was 1.02 ± 0.1 with FLUOROURACIL (50 nM), 1.03 ± 0.1 with FLUOROURACIL (100 nM), 0.931 ± 0.15 in the assay with FLUOROURACIL (500 nM) and 0.554 ± 0.017 with FLUOROURACIL (1000 nM).

COLO320DM LARGE INTESTINE: the surviving fraction with SALINOMYCIN (0.5 nM) came out at 1.05 ± 0.037; in the assay with SALINOMYCIN (1 nM) it was 1.04 ± 0.036; with SALINOMYCIN (5 nM) it was 1.11 ± 0.026; with SALINOMYCIN (10 nM), 0.522 ± 0.056; with SALINOMYCIN (50 nM) it was 1.14 ± 0.12; in the assay with SALINOMYCIN (100 nM), 0.966 ± 0.081. The surviving fraction with SALINOMYCIN (500 nM) was 0.388 ± 0.0066; with SALINOMYCIN (1000 nM), 0.1 ± 0.006; in the assay with FLUOROURACIL (0.5 nM), 1.07 ± 0.14; with FLUOROURACIL (1 nM), 1.06 ± 0.051; with FLUOROURACIL (5 nM) it was 1.09 ± 0.019; with FLUOROURACIL (10 nM) it was 1.05 ± 0.1. Further, the surviving fraction with FLUOROURACIL (50 nM) was found to be 0.988 ± 0.083; with FLUOROURACIL (100 nM) it was 0.863 ± 0.053; with FLUOROURACIL (500 nM), 0.492 ± 0.035; with FLUOROURACIL (1000 nM), 0.347 ± 0.023.
